Results published in the NIST ThermoML archive (doi:10.1016/j.jct.2017.12.021).
Where a name gives a salt, the structure may show the parent alone. Numbers after ± are expanded uncertainties.

Details: 101.33 kPa, Liquid; for viscosity: Capillary tube (Ostwald / Ubbelohde) method; for mass density: Pycnometric method

SMILES | viscosity (293.15 K) [mPa·s] | mass density (293.15 K) [kg/m3] | viscosity (298.15 K) [mPa·s] | mass density (298.15 K) [kg/m3] | viscosity (303.15 K) [mPa·s] | mass density (303.15 K) [kg/m3] | viscosity (308.15 K) [mPa·s] | mass density (308.15 K) [kg/m3] | viscosity (313.15 K) [mPa·s] | mass density (313.15 K) [kg/m3] | viscosity (318.15 K) [mPa·s] | mass density (318.15 K) [kg/m3] | viscosity (323.15 K) [mPa·s] | mass density (323.15 K) [kg/m3] | viscosity (328.15 K) [mPa·s] | mass density (328.15 K) [kg/m3] | viscosity (333.15 K) [mPa·s] | mass density (333.15 K) [kg/m3] | viscosity (338.15 K) [mPa·s] | mass density (338.15 K) [kg/m3]
CCCCOC(=O)C(C)O (centres undefined) [butyl 2-hydroxypropanoate] | 3.87 ± 0.39 | 981.5 ± 4 | 3.26 ± 0.33 | 977 ± 4 | 2.81 ± 0.28 | 973.1 ± 4 | 2.42 ± 0.24 | 968.4 ± 4 | 2.15 ± 0.22 | 963.5 ± 4 | 1.9 ± 0.19 | 958.5 ± 3.9 | 1.69 ± 0.17 | 953.9 ± 3.9 | 1.55 ± 0.16 | 948.9 ± 3.9 | 1.43 ± 0.14 | 944.1 ± 3.9 | 1.3 ± 0.13 | 940.1 ± 3.9
CC(=O)OCC(COC(C)=O)OC(C)=O [glyceryl triethanoate] | 21.48 ± 2.2 | 1158.3 ± 4.7 | 16.36 ± 1.6 | 1152.9 ± 4.7 | 12.5 ± 1.3 | 1147.4 ± 4.7 | 9.95 ± 1 | 1142 ± 4.6 | 8.21 ± 0.82 | 1136.6 ± 4.6 | 6.75 ± 0.68 | 1131.1 ± 4.6 | 5.66 ± 0.57 | 1125.7 ± 4.6 | 4.82 ± 0.48 | 1120.2 ± 4.6 | 4.18 ± 0.42 | 1114.8 ± 4.5 | 3.67 ± 0.37 | 1109.4 ± 4.5
CCOC(=O)CC(CC(=O)OCC)(OC(C)=O)C(=O)OCC [triethyl acetyl citrate] | – | 1142.1 ± 5.2 | 46.55 ± 4.7 | 1137.5 ± 5.2 | 34.56 ± 3.5 | 1133.1 ± 5.2 | 25.1 ± 2.6 | 1127.6 ± 5.1 | 17.52 ± 1.8 | 1124.1 ± 5.1 | 13.81 ± 1.4 | 1118.5 ± 5.1 | 10.95 ± 1.1 | 1115.1 ± 5.1 | 8.86 ± 0.9 | 1110.1 ± 5.1 | 7.98 ± 0.81 | 1105.4 ± 5 | 7.02 ± 0.71 | 1100.5 ± 5
CCOC(=O)CC(O)(CC(=O)OCC)C(=O)OCC [triethyl citrate] | 44.12 ± 4.4 | 1138.4 ± 4.7 | 32.1 ± 3.2 | 1134.5 ± 4.7 | 20.79 ± 2.1 | 1131.1 ± 4.7 | 16.55 ± 1.7 | 1126.2 ± 4.7 | 13.18 ± 1.3 | 1122.4 ± 4.7 | 10.24 ± 1 | 1116.5 ± 4.6 | 8.62 ± 0.87 | 1112.1 ± 4.6 | 7.23 ± 0.73 | 1106.6 ± 4.6 | 6.41 ± 0.65 | 1102.8 ± 4.6 | 5.71 ± 0.57 | 1097.3 ± 4.6
